Reference: ChEMBL document CHEMBL1201862, “PubChem BioAssay data set” (2004)
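How tested: cells in 96-well plates exposed to compound for 48 hours at five concentrations. GI50 marks 50% less growth.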 Activity calls are given as the source filed them. Rule as the data show it: active = GI50 up to about 1.1 µM and inactive = higher.

What was measured:
Test in all cases: NCI anticancer screen, dose series, 48 h
[1] = test system: M14
[2] = test system: HT-29
[3] = test system: HOP-92
[4] = test system: K562
[5] = test system: U-251
[6] = test system: SNB-19
[7] = test system: OVCAR-4
[8] = test system: SK-OV-3
[9] = test system: CAKI-1
[10] = test system: A498
[11] = test system: SW-620
[12] = test system: SK-MEL-5
[13] = test system: CCRF-CEM
[14] = test system: SNB-78
[15] = test system: LOX IMVI
[16] = test system: NCI/ADR-RES
[17] = test system: T47D
[18] = test system: DU-145
[19] = test system: SR
[20] = test system: BT-549

Compound	GI50 [1]	GI50 [2]	GI50 [3]	GI50 [4]	GI50 [5]	GI50 [6]	GI50 [7]	GI50 [8]	GI50 [9]	GI50 [10]	GI50 [11]	GI50 [12]	GI50 [13]	GI50 [14]	GI50 [15]	GI50 [16]	GI50 [17]	GI50 [18]	GI50 [19]	GI50 [20]
O=c1ccn([C@H]2CSC[C@@H](CO)C2)c(=O)[nH]1	> 100 µM (inactive)	> 100 µM (inactive)	> 100 µM (inactive)	> 100 µM (inactive)	> 100 µM (inactive)	> 100 µM (inactive)	> 100 µM (inactive)	> 100 µM (inactive)	> 100 µM (inactive)	> 100 µM (inactive)	> 100 µM (inactive)	> 100 µM (inactive)	> 100 µM (inactive)	> 100 µM (inactive)	> 100 µM (inactive)					
O=C(Nc1ccc(Cl)cc1)/C(Cc1cccc[n+]1[O-])=N\Nc1ccc([N+](=O)[O-])cc1[N+](=O)[O-]	> 100 µM (inactive)		> 100 µM (inactive)	> 100 µM (inactive)	> 100 µM (inactive)	> 100 µM (inactive)	> 100 µM (inactive)	> 100 µM (inactive)	> 100 µM (inactive)	> 100 µM (inactive)	> 100 µM (inactive)	> 100 µM (inactive)	> 100 µM (inactive)	> 100 µM (inactive)	> 100 µM (inactive)					
CC(=O)O[C@H]1C(=O)[C@@]2(C)C(C(OC(=O)c3ccccc3)[C@]3(O)CC(OC(=O)C(O)C(NC(=O)c4ccc(C)cc4)c4ccccc4)C(C)=C1C3(C)C)[C@]1(OC(C)=O)CO[C@@H]1C[C@@H]2O (stereo partly drawn)	< 0.0025 µM (active)	< 0.0025 µM (active)		< 0.0025 µM (active)	0.00315 µM (active)	0.00771 µM (active)	3.2 µM (inactive)	< 0.0025 µM (active)	0.224 µM (active)	0.00596 µM (active)		0.00402 µM (active)	0.00365 µM (active)	4.02 µM (inactive)	0.00352 µM (active)					
Cc1cc2c(c(C(N)=O)c1C)-c1cccc(Cl)c1C2=O	> 100 µM (inactive)	> 100 µM (inactive)	> 100 µM (inactive)	> 100 µM (inactive)	> 100 µM (inactive)	64.1 µM (inactive)	> 100 µM (inactive)	> 100 µM (inactive)		> 100 µM (inactive)	> 100 µM (inactive)	> 100 µM (inactive)	> 100 µM (inactive)	> 100 µM (inactive)	> 100 µM (inactive)					
COc1cc(/C=C2\N=C(c3ccccc3)N(c3ccc(C(=O)c4ccccc4)cc3N3C(=O)/C(=C/c4ccc(O)c(OC)c4)N=C3c3ccccc3)C2=O)ccc1O	11.3 µM (inactive)	20.3 µM (inactive)	22.7 µM (inactive)	5.18 µM (inactive)	9.79 µM (inactive)	19.5 µM (inactive)	14.9 µM (inactive)	12.1 µM (inactive)	18.7 µM (inactive)	6.92 µM (inactive)	7.53 µM (inactive)	7.76 µM (inactive)	5.45 µM (inactive)		10.5 µM (inactive)	6.76 µM (inactive)	5.18 µM (inactive)	17 µM (inactive)	3.85 µM (inactive)	18.7 µM (inactive)
CCCC(CC)c1c(O)c(O)c(C(CC)CCC)c(C(CC)CCC)c1C(CC)CCC (stereo not drawn)	> 10 µM (inactive)	> 10 µM (inactive)	> 10 µM (inactive)	> 10 µM (inactive)	> 10 µM (inactive)	> 10 µM (inactive)	> 10 µM (inactive)	> 10 µM (inactive)	> 10 µM (inactive)	> 10 µM (inactive)	> 10 µM (inactive)	> 10 µM (inactive)	> 10 µM (inactive)		> 10 µM (inactive)	> 10 µM (inactive)	> 10 µM (inactive)	> 10 µM (inactive)	> 10 µM (inactive)	> 10 µM (inactive)
C/C(=N\Nc1nc2ccccc2n1C)c1ccc2ccccc2n1	1.02 µM (active)	0.0861 µM (active)	2.48 µM (inactive)	2.07 µM (inactive)	2 µM (inactive)	4.66 µM (inactive)	0.19 µM (active)	12 µM (inactive)	0.611 µM (active)	3.69 µM (inactive)	0.35 µM (active)	1.24 µM (inactive)	0.244 µM (active)		1.64 µM (inactive)	1.63 µM (inactive)	< 0.01 µM (active)	3.86 µM (inactive)	0.51 µM (active)	> 22.3 µM (inactive)
CCOC(=O)c1cccc(NC(=O)CCl)c1	8.61 µM (inactive)	3.81 µM (inactive)	7.45 µM (inactive)	3.08 µM (inactive)	1.4 µM (inactive)	28.6 µM (inactive)	2.37 µM (inactive)	4.92 µM (inactive)	1.88 µM (inactive)	15.2 µM (inactive)	3.32 µM (inactive)	1.79 µM (inactive)	3.21 µM (inactive)		1.34 µM (inactive)	3.61 µM (inactive)	2.48 µM (inactive)	9.44 µM (inactive)	1.77 µM (inactive)	4.45 µM (inactive)
CN(C)/C=N\c1cc[nH]c(=O)n1	> 100 µM (inactive)	> 100 µM (inactive)	> 100 µM (inactive)	> 100 µM (inactive)	> 100 µM (inactive)		> 100 µM (inactive)	> 100 µM (inactive)	> 100 µM (inactive)	> 100 µM (inactive)	> 100 µM (inactive)	> 100 µM (inactive)	> 100 µM (inactive)	> 100 µM (inactive)	> 100 µM (inactive)					
COC1CC(C)([N+](=O)[O-])C(O)C(C)O1 (stereo not drawn)	> 100 µM (inactive)	> 100 µM (inactive)	> 100 µM (inactive)	> 100 µM (inactive)	> 100 µM (inactive)	> 100 µM (inactive)	> 100 µM (inactive)	> 100 µM (inactive)	> 100 µM (inactive)	> 100 µM (inactive)	> 100 µM (inactive)	> 100 µM (inactive)	> 100 µM (inactive)		> 100 µM (inactive)	> 100 µM (inactive)	> 100 µM (inactive)	> 100 µM (inactive)	> 100 µM (inactive)	91.6 µM (inactive)
COc1ccc(NC(=O)CC(=O)NNC(Sc2ccccc2)c2cc(/N=N/c3ccc(Br)cc3)ccc2O)cc1 (stereo not drawn)	> 10 µM (inactive)	> 10 µM (inactive)	> 10 µM (inactive)	> 10 µM (inactive)	> 10 µM (inactive)	> 10 µM (inactive)	9.12 µM (inactive)	> 10 µM (inactive)	> 10 µM (inactive)	> 10 µM (inactive)	> 10 µM (inactive)	> 10 µM (inactive)	3.56 µM (inactive)		> 10 µM (inactive)	> 10 µM (inactive)	> 10 µM (inactive)	> 10 µM (inactive)	8.89 µM (inactive)	> 10 µM (inactive)
CC(=O)NNc1nc(C)c(C(=O)/C=C/c2ccc(Cl)c(Cl)c2)s1		> 100 µM (inactive)	> 100 µM (inactive)	> 100 µM (inactive)	> 100 µM (inactive)	> 100 µM (inactive)		> 100 µM (inactive)	> 100 µM (inactive)	> 100 µM (inactive)	> 100 µM (inactive)	> 100 µM (inactive)	70.5 µM (inactive)	> 100 µM (inactive)	> 100 µM (inactive)					
O=c1oc2ccccc2cc1-c1csc(Nc2ccc(F)cc2)n1	4.25 µM (inactive)	3.43 µM (inactive)	6.53 µM (inactive)	2.56 µM (inactive)	2.83 µM (inactive)	8.15 µM (inactive)	7.31 µM (inactive)	5.77 µM (inactive)	2.94 µM (inactive)	1.29 µM (inactive)	5 µM (inactive)	10.4 µM (inactive)	2.77 µM (inactive)		4.7 µM (inactive)	3.46 µM (inactive)	2.3 µM (inactive)	2.89 µM (inactive)	2.36 µM (inactive)	6.47 µM (inactive)
CC(=O)O[C@H]1/C(=C/c2ccncc2)C[C@H]2[C@@H]3CC=C4C[C@@H](N5CCCC5)CC[C@]4(C)[C@H]3CC[C@]12C	9.35 µM (inactive)	1.49 µM (inactive)	4.24 µM (inactive)	2.74 µM (inactive)	11.5 µM (inactive)	16.9 µM (inactive)	15.9 µM (inactive)	17.9 µM (inactive)	14 µM (inactive)	16.7 µM (inactive)	12.2 µM (inactive)	8.53 µM (inactive)	15.2 µM (inactive)		2.32 µM (inactive)	8.95 µM (inactive)	13.4 µM (inactive)	14.6 µM (inactive)	5.2 µM (inactive)	20.5 µM (inactive)
N=C(N)Nc1ccc(-c2ccc(NC(=N)N)cc2)cc1	36.1 µM (inactive)	45.5 µM (inactive)	45 µM (inactive)	35.4 µM (inactive)	23.6 µM (inactive)	41.4 µM (inactive)	60.7 µM (inactive)	> 55.8 µM (inactive)	41.1 µM (inactive)	6.95 µM (inactive)	62.5 µM (inactive)	16.3 µM (inactive)	37.3 µM (inactive)		50.8 µM (inactive)	42.5 µM (inactive)	44.4 µM (inactive)	25.9 µM (inactive)	14.6 µM (inactive)	45.8 µM (inactive)
CSC1=NC(C(N)=O)C(N)N1C (stereo not drawn)	> 100 µM (inactive)	> 100 µM (inactive)	> 100 µM (inactive)	> 100 µM (inactive)	> 100 µM (inactive)	> 100 µM (inactive)	> 100 µM (inactive)	> 100 µM (inactive)	> 100 µM (inactive)	> 100 µM (inactive)	> 100 µM (inactive)	> 100 µM (inactive)	> 100 µM (inactive)		> 100 µM (inactive)	> 100 µM (inactive)	> 100 µM (inactive)	> 100 µM (inactive)	> 100 µM (inactive)	> 100 µM (inactive)
